Patent US20070253957A1, “Substituted N-Aryl-1H-Pyrazolo[3,4-B]Quinolin-4-Amines and Analogs as Activators of Caspases and Inducers of Apoptosis” (Cytovia, Inc., priority 2004, published 2007)
Where two headings read alike, the source gives them in different places.

How the values were obtained:
[1] = system: T-47D; experiment: Caspase cascade activation assay (N-(Ac-DEVD)-N'-ethoxycarbonyl-R110 fluorogenic substrate) in T-47D cells; format: cell-based, Human; details: 24 h incubation; for Caspase Activity Ratio: ratio of net RFU (T=3 h) to that of control samples, 0.16 to 10 μM final; for EC50: sigmoidal dose-response calculation, read-out: Caspase Potency EC50
Experimental: Human breast cancer cell lines T-47D was grown according to media component mixtures designated by American Type Culture Collection+10% FCS (mvitrogen Corporation), in a 5% CO2-95% humidity incubator at 37° C. T-47D and ZR-75-1 cells were maintained at a cell density between 30 and 80% confluency and for HL-60 at a cell density of 0.1 to 0.6×10^6 cells/mL. Cells were harvested at 600×g and resuspended at 0.65×10^6 cells/mL into appropriate media+10% FCS. An aliquot of 45 μL of cells was added to a well of a 96-well microtiter plate containing 5 μL of a 10% DMSO in RPMI-1640 media solution containing 1.6 to 100 μM of 1,3-dimethyl-N-(4-methoxyphenyl)-1H-pyrazolo[3,4-b]quinolin-4-amine or other test compound (0.16 to 10 μM final). An aliquot of 45 μL of cells was added to a well of a 96-well microtiter plate containing 5 μL of a 10% DMSO in RPMI-1640 media solution without test compound as the control sample. The samples were mixed by agitation and then incubated at 37° C. for 24 h in a 5% CO2-95% humidity incubator. After incubation, the samples were removed from the incubator and 50 μL of a solution containing 20 μM of N-(Ac-DEVD)-N′-ethoxycarbonyl-R110 fluorogenic substrate (SEQ ID NO:1) (Cytovia, Inc.; U.S. Pat. No. 6,335,429), 20% sucrose (Sigma), 20 mM DTT (Sigma), 200 mM NaCl (Sigma), 40 mM Na PIPES buffer pH 7.2 (Sigma), and 500 μg/mL lysolecithin (Calbiochem) was added. The samples were mixed by agitation and incubated at room temperature. Using a fluorescent plate reader (Model 1420 Wallac Instruments), an initial reading (T=0) was made about 1-2 min after addition of the substrate solution, employing excitation at 485 nm and emission at 530 nm, to determine the background fluorescence of the control sample. After about 3 h of incubation, the samples were read for fluorescence as above (T=3 h).
The Relative Fluorescence Unit values (RFU) were used to calculate the sample readings as follows: RFU(T=3h)−Control RFU(T=0)=Net RFU(T=3h)
The activity of caspase cascade activation was determined by the ratio of the net RFU value for 1,3-dimethyl-N-(4-methoxyphenyl)-1H-pyrazolo[3,4-b]quinolin-4-amine to that of control samples. The EC50 (nM) was determined by a sigmoidal dose-response calculation (Prism 2.0, GraphPad Software Inc.).

[2] = system: T-47D; experiment: Inhibition of cell proliferation (GI50), CellTiter 96 AQUEOUS One Solution, T-47D cells; format: cell-based, Human; details: 48 h incubation, dose for 50% inhibition of cell proliferation
Experimental: (§1) T-47D and MX1 cells were grown and harvested as in Example 49. An aliquot of 90 μL of cells (2.2×10^4 cells/mL) was added to a well of a 96-well micrQtiter plate containing 10 μl of a 10% DMSO in RPMI-1640 media solution containing […] to 100 μM of 1,3-dimethyl-N-(4-methoxyphenyl)-1H-pyrazolo[3,4-b]quinolin-4-amine (0.1 nM to 10 μM final) or other test compound. An aliquot of 90 μL of cells was added to a well of a 96-well microtiter plate containing 10 μL of a 10% DMSO in RPMI-1640 media solution without compound as the control sample for maximal cell proliferation (AMax). The samples were mixed by agitation and then incubated at 37° C. for 48 h in a 5% CO2-95% humidity incubator. After incubation, the samples were removed from the incubator and 20 μL of CellTiter 96 AQUEOUS One Solution Cell Proliferation™ reagent (Promega) was added. The samples were mixed by agitation and incubated at 37° C. for 2-4 h in a 5% CO2-95% humidity incubator. Using an absorbance plate reader (Model 1420 Wallac Instruments), an initial reading (T=0) was made about 1-2 min after addition of the solution, employing absorbance at 490 nm. This determines the possible background absorbance of the test compounds. No absorbance for 1,3-dimethyl-N-(4-methoxyphenyl)-1H-pyrazolo[3,4-b]quinolin-4-amine was found at 490 nm. After the 2-4 h incubation, the samples were read for absorbance as above (ATest).
(§2) Baseline for GI50 (dose for 50% inhibition of cell proliferation) of initial cell numbers were determined by adding an aliquot of 90 μL of cells or 90 μL of media, respectively, to wells of a 96-well microtiter plate containing 10 μL of a 10% DMSO in RPMI-1640 media solution. The samples were mixed by agitation and then incubated at 37° C. for 0.5 h in a 5% CO2-95% humidity incubator. After incubation, the samples were removed from the incubator and 20 μL of CellTiter 96 AQUEOUS One Solution Cell Proliferation™ reagent (Promega) was added. The samples were mixed by agitation and incubated at 37° C. for 2-4 h in a 5% CO2-95% humidity incubator. Absorbance was read as above, (Astart) defining absorbance for initial cell number used as baseline in GI50 determinations.
(§3) GI50 (dose for 50% inhibition of cell proliferation) is the concentration where [(ATest−Astart)/(AMax−AStart)]=0.5.

[3] = system: MX1; experiment: Inhibition of cell proliferation (GI50), CellTiter 96 AQUEOUS One Solution, MX1 cells; format: cell-based; details: 48 h incubation, dose for 50% inhibition of cell proliferation
Experimental: as §1, §2, §3

## CC(=O)c1ccc(Nc2c3cc(C)ccc3nc3c2c(C)nn3C)cc1 [Example 26, N-(4-Acetylphenyl)-1,3,6-trimethyl-1H-pyrazolo[3,4-b]quinolin-4-amine]
[1]
  Caspase Activity Ratio: 1.1
[1]; Homo sapiens, T47D
  EC50: > 10000 nM
[2]; Homo sapiens, T47D
  GI50: > 10000 nM
[3]; Homo sapiens
  GI50: > 10000 nM

## COc1ccc(Nc2c3ccccc3nc3c2c(C)nn3C)cc1 [Compound A, 1,3-Dimethyl-N-(4-methoxyphenyl)-1H-pyrazolo[3,4-b]quinolin-4-amine]
[1]
  Caspase Activity Ratio: 3.8
[1]; Homo sapiens, T47D
  EC50: 793 nM
[2]; Homo sapiens, T47D
  GI50: 809 nM
[3]; Homo sapiens
  GI50: 800 nM

## CC(=O)c1ccc(Nc2c3cccc(C)c3nc3c2c(C)nn3C)cc1 [Example 29, N-(4-Acetylphenyl)-1,3,8-trimethyl-1H-pyrazolo[3,4-b]quinolin-4-amme]
[1]
  Caspase Activity Ratio: 4.2
  EC50: 663 nM
[2]
  GI50: 399 nM
[3]
  GI50: 600 nM

## CSc1ccc(Nc2c3ccccc3nc3c2c(C)nn3C)cc1 [Example 33, 1,3-Dimethyl-N-(4-methylthiophenyl)-1H-pyrazolo[3,4-b]quinolin-4-amine]
[1]
  Caspase Activity Ratio: 3.6
[1]; Homo sapiens, T47D
  EC50: 667 nM
[2]; Homo sapiens, T47D
  GI50: 500 nM
[3]; Homo sapiens
  GI50: 500 nM

## COC(=O)c1ccc(N(C)c2c3ccccc3nc3c2c(C)nn3C)cc1 [Example 30, 1,3-Dimethyl-N-methyl-N-(4-methoxycarbonylphenyl)-1H-pyrazolo[3,4-b]quinolin-4-amine]
[1]
  Caspase Activity Ratio: 6.6
[1]; Homo sapiens, T47D
  EC50: 2850 nM
[2]; Homo sapiens, T47D
  GI50: 4560 nM
[3]; Homo sapiens
  GI50: 4000 nM

## CC(=O)c1ccc(Nc2c3c(nc4ccccc24)CCC3)cc1 [Example 11, N-(4-Acetylphenyl)-2,3-dihydro-1H-cyclopenta[b]quinolin-9-amine]
[1]
  Caspase Activity Ratio: 9.4
[1]; Homo sapiens, T47D
  EC50: 444 nM
[2]; Homo sapiens, T47D
  GI50: 300 nM
[3]; Homo sapiens
  GI50: 300 nM

## CCC(O)c1ccc(Nc2c3ccccc3nc3c2c(C)nn3C)cc1 (stereo not shown) [Example 43, N-(4-(1-Hydroxypropyl)-phenyl)-1,3-dimethyl-1H-pyrazolo[3,4-b]quinolin-4-amine]
[1]
  Caspase Activity Ratio: 3.7
[1]; Homo sapiens, T47D
  EC50: 183 nM
[2]; Homo sapiens, T47D
  GI50: 140 nM
[3]; Homo sapiens
  GI50: 1670 nM

## COc1ccc(N(C)c2c3ccccc3nc3c2c(C)nn3C)cc1 [Example 31, 1,3-Dimethyl-N-methyl-N-(4-methoxyphenyl)-1H-pyrazolo[3,4-b]quinolin-4-amine]
[1]
  Caspase Activity Ratio: 9.7
[1]; Homo sapiens, T47D
  EC50: 4100 nM
[2]; Homo sapiens, T47D
  GI50: 6100 nM
[3]; Homo sapiens
  GI50: > 10000 nM

## CCC(=O)c1ccc(Nc2c3ccccc3nc3c2c(C)nn3CC)cc1 [Example 42, 1-Ethyl-3-methyl-N-(4-propionylphenyl)-1H-pyrazolo[3,4-b]quinolin-4-amine]
[1]
  Caspase Activity Ratio: 6.7
[1]; Homo sapiens, T47D
  EC50: 173 nM
[2]; Homo sapiens, T47D
  GI50: 100 nM
[3]; Homo sapiens
  GI50: 100 nM

## CCC(=O)c1ccc(Nc2c3ccccc3nc3c2c(C)nn3C)cc1 [Example 23, 1,3-Dimethyl-N-(4-propionylphenyl)-1H-pyrazolo[3,4-b]quinolin-4-amine]
[1]
  Caspase Activity Ratio: 4.2
[1]; Homo sapiens, T47D
  EC50: 43 nM
[2]; Homo sapiens, T47D
  GI50: 30 nM
[3]; Homo sapiens
  GI50: 30 nM

## COC(=O)c1ccc(Nc2c3ccccc3nc3c2c(C)nn3C)cc1 [Example 4, 1,3-Dimethyl-N-(4-(methoxycarbonyl)phenyl)-1H-pyrazolo[3,4-b]quinolin-4-amine]
[1]
  Caspase Activity Ratio: 8.6
[1]; Homo sapiens, T47D
  EC50: 333 nM
[2]; Homo sapiens, T47D
  GI50: 519 nM
[3]; Homo sapiens
  GI50: 500 nM

## CCC(=O)c1ccc(Nc2c3cccc([N+](=O)[O-])c3nc3c2c(C)nn3C)cc1 [Example 37, 1,3-Dimethyl-8-nitro-N-(4-propionylphenyl)-1H-pyrazolo[3,4-b]quinolin-4-amine]
[1]
  Caspase Activity Ratio: 4.2
[1]; Homo sapiens, T47D
  EC50: 435 nM
[2]; Homo sapiens, T47D
  GI50: 546 nM
[3]; Homo sapiens
  GI50: 900 nM

## CCC(=O)c1ccc(Nc2c3cccc(N)c3nc3c2c(C)nn3C)cc1 [Example 38, 8-Amino-1,3-dimethyl-N-(4-propionylphenyl)-1H-pyrazolo[3,4-b]quinolin-4-amine]
[1]
  Caspase Activity Ratio: 5.1
[1]; Homo sapiens, T47D
  EC50: 706 nM
[2]; Homo sapiens, T47D
  GI50: 803 nM
[3]; Homo sapiens
  GI50: 2210 nM
